Source: patent US8293791B2, “Method of neuroprotection by pharmacological inhibition of AMP-activated protein kinase” (priority 2004, dated 2012)
“Also recorded” adds a separate entry of the source. Like-named read-outs stand apart in the source and are kept apart here.

What was measured:
male C57B6 mice [1] = conditions: mouse, in vivo
[2] = test system: AMPKα phosphorylation (pAMPK); assay: Western blot analysis of pAMPK levels in brain hemispheres after MCAO or sham surgery; type: in vivo, mouse
Protocol: Cerebral ischemia was induced by 120 minutes of reversible right middle cerebral artery occlusion (MCAO) under halothane anesthesia followed by reperfusion for various times for male C57B6 mice (Charles River) or male rats, as described by McCullough, et al., Stroke, 32, 796-802 (2001) and McCullough, et al., J. Neuroscience, 24, pp. 257-268 (2004), respectively. Intra-ischemic and 22 hour post-reperfusion neurological deficits (NDS) were scored as follows: 0, no deficit; 1, forelimb weakness and torso turning to the ipsilateral side when held by tail; 2, circling to affected side; 3, unable to bear weight on affected side; and 4, no spontaneous locomotor activity or barrel rolling. Any animal without deficit was excluded from the study. At end-ischemia, the animal was briefly re-anaesthetized and reperfusion was initiated by filament withdrawal. Sham animals were subjected to the equivalent surgical preparation, but the suture was not advanced into the internal carotid. For the pharmacological neuroprotection studies, mice survived 22 hours after reperfusion, at which time behavioral scoring was done. The brain was then harvested for pathological examination with TTC histology (see Histopathology section). In separate animal cohorts, physiological measurements, femoral arterial blood pressure and cortical perfusion (laser Doppler flowmetry) were evaluated throughout MCAO and early reperfusion as described in the 2001 McCullough paper referenced above. Additional animals were exposed to ischemia or sham surgery after pharmacological or vehicle treatment and were sacrificed at 4 or 24 hours for Western blot analysis. Male nNOS and PARP-1 deficient mice (see, Huang, et al., Science, 265, 1883-1885 (1994); Eliasson, et al, Nat. Med, 3, 1089-1095 (1997)) were subjected to 2-hour right MCAO or sham surgery and compared to additional WT cohorts (C57-BL6 for nNOS−/− and SVEV for PARP−/−). Mouse and rat stroke and sham brain samples were obtained by rapid removal of the brain from the skulk resection of the cerebellum, followed by immediate dissection into the right (R) and left (L) hemispheres. Samples were flash frozen in liquid nitrogen. Samples from rats were further sub-dissected into core and penumbral regions for both hemispheres. Samples were stored at −80° C. until use. […] SDS detergent was added to a final concentration of 0.2%, and lysates were boiled for 5 min. After the supernatant was harvested, protein concentration was determined using a BCA kit (Bio Rad). 40 μg of protein was loaded per lane on a 4-15% gradient SDS-polyacrylamide gel, and transferred to a polyvinylidene difluoride membrane. Blots were successively probed, stripped and reprobed for antigen detection. Phosphorylation of AMPKα was determined using an anti-phospho-AMPKα (α1 and α2 Thr) antibody (1:1000, Cell Signaling). ACC (1:500), p-ACC (1:1000), pAkt (1:500), and Akt (1:500) antibodies were obtained from Upstate, Lake Placid, N.Y. Anti-AMPKα antibody (anti-α1 and α2, 1:1000; Cell Signaling), hsp-70 (1:1000; Santa Cruz), and β-actin (1:5000; Sigma) were used as loading controls. All blots were incubated overnight in primary antibody at 4° C. in TBS buffer containing 5% BSA and 0.1% Triton-X-100. The secondary antibody (goat anti-rabbit IgG, Chemicon) was diluted to 1:5,000, and ECL (pico) detection kit was used for signal detection.

male C57B6 mice [3] = assay: Infarction volume (TTC staining) after 2-hr reversible MCAO with 22 hr reperfusion; type: in vivo, mouse
Protocol: Cerebral ischemia was induced by 120 minutes of reversible right middle cerebral artery occlusion (MCAO) under halothane anesthesia followed by reperfusion for various times for male C57B6 mice (Charles River) or male rats, as described by McCullough, et al., Stroke, 32, 796-802 (2001) and McCullough, et al., J. Neuroscience, 24, pp. 257-268 (2004), respectively. Intra-ischemic and 22 hour post-reperfusion neurological deficits (NDS) were scored as follows: 0, no deficit; 1, forelimb weakness and torso turning to the ipsilateral side when held by tail; 2, circling to affected side; 3, unable to bear weight on affected side; and 4, no spontaneous locomotor activity or barrel rolling. Any animal without deficit was excluded from the study. At end-ischemia, the animal was briefly re-anaesthetized and reperfusion was initiated by filament withdrawal. Sham animals were subjected to the equivalent surgical preparation, but the suture was not advanced into the internal carotid. For the pharmacological neuroprotection studies, mice survived 22 hours after reperfusion, at which time behavioral scoring was done. The brain was then harvested for pathological examination with TTC histology (see Histopathology section). In separate animal cohorts, physiological measurements, femoral arterial blood pressure and cortical perfusion (laser Doppler flowmetry) were evaluated throughout MCAO and early reperfusion as described in the 2001 McCullough paper referenced above. Additional animals were exposed to ischemia or sham surgery after pharmacological or vehicle treatment and were sacrificed at 4 or 24 hours for Western blot analysis. Male nNOS and PARP-1 deficient mice (see, Huang, et al., Science, 265, 1883-1885 (1994); Eliasson, et al, Nat. Med, 3, 1089-1095 (1997)) were subjected to 2-hour right MCAO or sham surgery and compared to additional WT cohorts (C57-BL6 for nNOS−/− and SVEV for PARP−/−). Infarction volume was analyzed by 2,3,5-triphenyltetrazolium staining in five 2-mm slices. Infarction volume was determined by video microscopy and image analysis (Inquiry 3, Loats Associates), as previously described by McCullough, et al., J. Neuroscience 23, pp. 8701-8705 (2003). All data are expressed as mean±SEM. Physiological variables and histology were analyzed by 1-way ANOVA with a post-hoc Newman-Keuls to correct for multiple comparisons. Post-ischemic neurological scores were analyzed by the Mann-Whitney U test. Values were considered statistically significant at *, p<0.05; **, p<0.01; ***, p<0.001

male C57B6 mice [4] = assay: Neurological deficit score (NDS) after MCAO; type: in vivo, mouse
Protocol: Cerebral ischemia was induced by 120 minutes of reversible right middle cerebral artery occlusion (MCAO) under halothane anesthesia followed by reperfusion for various times for male C57B6 mice (Charles River) or male rats, as described by McCullough, et al., Stroke, 32, 796-802 (2001) and McCullough, et al., J. Neuroscience, 24, pp. 257-268 (2004), respectively. Intra-ischemic and 22 hour post-reperfusion neurological deficits (NDS) were scored as follows: 0, no deficit; 1, forelimb weakness and torso turning to the ipsilateral side when held by tail; 2, circling to affected side; 3, unable to bear weight on affected side; and 4, no spontaneous locomotor activity or barrel rolling. Any animal without deficit was excluded from the study. At end-ischemia, the animal was briefly re-anaesthetized and reperfusion was initiated by filament withdrawal. […] In separate animal cohorts, physiological measurements, femoral arterial blood pressure and cortical perfusion (laser Doppler flowmetry) were evaluated throughout MCAO and early reperfusion as described in the 2001 McCullough paper referenced above. […]
All data are expressed as mean±SEM. Physiological variables and histology were analyzed by 1-way ANOVA with a post-hoc Newman-Keuls to correct for multiple comparisons. Post-ischemic neurological scores were analyzed by the Mann-Whitney U test. […]

male C57B6 mice [5] = assay: Physiological measurements, arterial blood pressure and laser Doppler flow during MCAO and early reperfusion; conditions: for MAP: averaged over the 2 hours of ischemia (all); for MAP / LDF (% BL) / HCO3 / Hg / PCO2 / PO2 / Ph: n=4/group; for LDF (% BL) / HCO3 / Hg / PCO2 / PO2 / Ph: intra-ischemic; for LDF (% BL): averaged over the 2 hours of ischemia

Question: NC(=O)c1ncn([C@@H]2O[C@H](CO)[C@@H](O)[C@H]2O)c1N [AICAR, 5-aminoimidazole-4-carboxamide ribonucleoside] was tested. Which “CBF at 30 minutes after reperfusion” value (male C57B6 mice [1]) did it give?
Answer: The value was 82.7 % of baseline.

Question: What about the HCO3 (male C57B6 mice [1]) of the same molecule?
Answer: The HCO3 was 22.9 ± 2.3.

Question: And the Hg (male C57B6 mice [1])?
Answer: The Hg was 13.4 ± 0.9.

Question: What about the “LDF (% BL)” value (male C57B6 mice [1]) of the same molecule?
Answer: The value was 11.1 ± 1.2 % BL.

Question: What about the MAP (male C57B6 mice [1]) of the same molecule?
Answer: The MAP was 77.7 ± 7.3 (all).

Question: And the PCO2 (male C57B6 mice [1])?
Answer: Its PCO2 is 39.7 ± 4.9.

Question: What about the PO2 (male C57B6 mice [1]) of the same molecule?
Answer: The PO2 was 128 ± 15.2.

Question: What about the Ph (male C57B6 mice [1]) of the same molecule?
Answer: The Ph was 7.33 ± 0.11.

Question: What about the “intraischemic CBF, vs controls” value (male C57B6 mice [1]) of the same molecule?
Answer: Its value is “no differences”.

Question: And the “mean arterial pressure (MAP) at 15 minutes after injection” value (male C57B6 mice [1])?
Answer: The value was 69 mmHg.

Question: And the “pAMPK by 24 hr” value ([2]; AICAR treated animals)?
Answer: The value was “returned to baseline”.

Question: What about the “pAMPK 4 hr following stroke (2 hours of reperfusion)” value ([2]; AICAR treated vs vehicle treated animals) of the same molecule?
Answer: The value was “elevations”.

Question: And the “total and cortical (CTX) stroke volumes” value (male C57B6 mice [3]; AICAR 500 mg/kg i.p. at stroke onset, vs vehicle)?
Answer: The value was “significant exacerbation”.

Question: Which “increase in pAMPK levels at 4 hr (2 hr of reperfusion)” value ([2]; C75 treated mice vs vehicle, 2-hour MCAO) does the source give for C=C1C(=O)OC(CCCCCCCC)C1C(=O)O (stereo not drawn) [C75] here?
Answer: Its value is “blunted”.

Question: And the “pAMPK levels 24 hr following stroke” value ([2]; C75 treated vs vehicle, both sham and stroke mice)?
Answer: Its value is “reduced; also recorded: Reductions”.

Question: And the “behavioral scores (score 0-4)” value (male C57B6 mice [4]; C75 20 mg/kg i.p. immediately prior to onset of ischemia, vehicle 3.2±0.05)?
Answer: Its value is 2.0±0.03.

Question: And the “LDF or physiological variables, vs vehicle” value (male C57B6 mice [5]; C75 20 mg/kg i.p., n=4)?
Answer: Its value is “no differences”.

Question: What about the MAP (male C57B6 mice [5]) of the same molecule?
Answer: The MAP was 79.1 ± 6.5.

Question: What about the “LDF (% BL)” value (male C57B6 mice [5]) of the same molecule?
Answer: The value was 10.6 ± 0.88 % BL.

Question: What about the HCO3 (male C57B6 mice [5]) of the same molecule?
Answer: Its HCO3 is 22.8 ± 1.2.

Question: And the Hg (male C57B6 mice [5])?
Answer: The Hg was 12.9 ± 0.5.

Question: And the PCO2 (male C57B6 mice [5])?
Answer: Its PCO2 is 47 ± 7.1.

Question: And the PO2 (male C57B6 mice [5])?
Answer: Its PO2 is 135 ± 14.2.

Question: And the Ph (male C57B6 mice [5])?
Answer: The Ph was 7.34 ± 0.08.

Question: And the “total and regional infarction volume” value (male C57B6 mice [3]; C75 20 mg/kg i.p. immediately prior to onset of ischemia, vs vehicle (RPMI), p<0.001)?
Answer: Its value is “significant reduction”.

Question: What does the source list for c1cc(-c2cnn3cc(-c4ccc(OCCN5CCCCC5)cc4)cnc23)ccn1 [Compound C]?
Answer: pAMPK levels 4 hr after infarction (2 hours of reperfusion) ([2]; Compound C treated mice vs vehicle, 2 hours MCAO): reduced; severity of behavioral deficits at 24 hours (score 0-4) (male C57B6 mice [4]; Compound C 20 mg/kg i.p. at stroke onset, vehicle 3.3±0.3): 1.9±0.2; relative cerebral blood flow (CBF) by laser Doppler, intraischemic and during the 30 minutes after reperfusion, vs vehicle (male C57B6 mice [5]; Compound C 20 mg/kg i.p.): no difference; relative cerebral blood flow (CBF) by laser Doppler, intraischemic period (male C57B6 mice [5]; Compound C 20 mg/kg i.p., vehicle 9.8±0.54, p=n.s.): 10.6±0.9 % of baseline; MAP (male C57B6 mice [5]): 82.2 ± 5.9; LDF (% BL) (male C57B6 mice [5]): 10.6 ± 0.9 % BL; HCO3 (male C57B6 mice [5]): 23.1 ± 0.08; Hg (male C57B6 mice [5]): 12.7 ± 1.3; PCO2 (male C57B6 mice [5]): 42.1 ± 3.1; PO2 (male C57B6 mice [5]): 144.6 ± 14.3; Ph (male C57B6 mice [5]): 7.36 ± 0.07; cortical (CTX) infarct volume (male C57B6 mice [3]; Compound C 20 mg/kg i.p. at stroke onset, 2-hr MCAO, 22 hr reperfusion, vehicle 63±3.4): 19.4±3.3 % non-ischemic hemisphere; striatal (CP) infarct volume (male C57B6 mice [3]; Compound C 20 mg/kg i.p. at stroke onset, 2-hr MCAO, 22 hr reperfusion, vehicle 64±5.7): 21±3.9 % non-ischemic hemisphere; total infarct volume (male C57B6 mice [3]; Compound C 20 mg/kg i.p. at stroke onset, 2-hr MCAO, 22 hr reperfusion, vs vehicle): significantly reduced
